Measurements: ChEMBL document CHEMBL4270599, “Synthesis of a 3'-C-ethynyl-β-d-ribofuranose purine nucleoside library: Discovery of C7-deazapurine analogs as potent antiproliferative nucleosides” (Eur J Med Chem, 2018)

Assays:
Type in all cases: functional
MCF7 = experiment: Growth inhibition of human MCF7 cells assessed as cell growth at 10^-4 M incubated for 48 hrs by sulforhodamine B assay relative to control; conditions: MCF7, 48 h, read-out: Activity
786-0 = experiment: Cytotoxicity against human 786-0 cells after 48 hrs by SRB assay; conditions: 786-0, 48 h
OVCAR-3 [1] = experiment: Growth inhibition of human OVCAR3 cells assessed as cell growth at 10^-8 M incubated for 48 hrs by sulforhodamine B assay relative to control; conditions: OVCAR-3, 48 h, read-out: Activity
HCT-116 [2] = experiment: Cytotoxicity against human HCT116 cells after 48 hrs by SRB assay; conditions: HCT-116, 48 h
ACHN [3] = experiment: Cytotoxicity against human ACHN cells after 48 hrs by SRB assay
SK-MEL-5 = experiment: Growth inhibition of human SK-MEL-5 cells assessed as cell growth at 10^-7 M incubated for 48 hrs by sulforhodamine B assay relative to control; conditions: SK-MEL-5, 48 h, read-out: Activity
A549 = experiment: Growth inhibition of human A549/ATCC cells assessed as cell growth at 10^-6 M incubated for 48 hrs by sulforhodamine B assay relative to control; conditions: A549, 48 h, read-out: Activity
HT-29 [4] = experiment: Growth inhibition of human HT-29 cells assessed as cell growth at 10^-7 M incubated for 48 hrs by sulforhodamine B assay relative to control; conditions: HT-29, 48 h, read-out: Activity
M14 = experiment: Growth inhibition of human M14 cells assessed as cell growth at 10^-8 M incubated for 48 hrs by sulforhodamine B assay relative to control; conditions: M14, 48 h, read-out: Activity
SNB-75 = experiment: Growth inhibition of human SNB75 cells assessed as cell growth at 10^-8 M incubated for 48 hrs by sulforhodamine B assay relative to control; conditions: SNB-75, 48 h, read-out: Activity
HCC 2998 = experiment: Growth inhibition of human HCC2998 cells assessed as cell growth at 10^-6 M incubated for 48 hrs by sulforhodamine B assay relative to control; conditions: HCC 2998, 48 h, read-out: Activity
OVCAR-4 = experiment: Growth inhibition of human OVCAR4 cells assessed as cell growth at 10^-5 M incubated for 48 hrs by sulforhodamine B assay relative to control; conditions: OVCAR-4, 48 h, read-out: Activity
RXF 393 = experiment: Growth inhibition of human RXF393 cells assessed as cell growth at 10^-8 M incubated for 48 hrs by sulforhodamine B assay relative to control; conditions: RXF 393, 48 h, read-out: Activity
MDA-MB-435 = experiment: Growth inhibition of human MDA-MB-435 cells assessed as cell growth at 10^-8 M incubated for 48 hrs by sulforhodamine B assay relative to control; conditions: MDA-MB-435, 48 h, read-out: Activity
RPMI-8226 = experiment: Growth inhibition of human RPMI8226 cells assessed as cell growth at 10^-7 M incubated for 48 hrs by sulforhodamine B assay relative to control; conditions: RPMI-8226, 48 h, read-out: Activity
SF-268 = experiment: Growth inhibition of human SF268 cells assessed as cell growth at 10^-5 M incubated for 48 hrs by sulforhodamine B assay relative to control; conditions: SF-268, 48 h, read-out: Activity
COLO 205 [5] = experiment: Growth inhibition of human COLO205 cells assessed as cell growth at 10^-5 M incubated for 48 hrs by sulforhodamine B assay relative to control; conditions: COLO 205, 48 h, read-out: Activity
OVCAR-3 [6] = experiment: Growth inhibition of human OVCAR3 cells assessed as cell growth at 10^-6 M incubated for 48 hrs by sulforhodamine B assay relative to control; conditions: OVCAR-3, 48 h, read-out: Activity
K562 = experiment: Growth inhibition of human K562 cells assessed as cell growth at 10^-8 M incubated for 48 hrs by sulforhodamine B assay relative to control; conditions: K562, 48 h, read-out: Activity
HCT-116 [7] = experiment: Growth inhibition of human HCT116 cells assessed as cell growth at 10^-5 M incubated for 48 hrs by sulforhodamine B assay relative to control; conditions: HCT-116, 48 h, read-out: Activity
U-251 [8] = experiment: Growth inhibition of human U251 cells assessed as cell growth at 10^-8 M incubated for 48 hrs by sulforhodamine B assay relative to control; conditions: U-251, 48 h, read-out: Activity
HCT-116 [9] = experiment: Growth inhibition of human HCT116 cells assessed as cell growth at 10^-8 M incubated for 48 hrs by sulforhodamine B assay relative to control; conditions: HCT-116, 48 h, read-out: Activity
SR = experiment: Growth inhibition of human SR cells assessed as cell growth at 10^-7 M incubated for 48 hrs by sulforhodamine B assay relative to control; conditions: read-out: Activity
U-251 [10] = experiment: Growth inhibition of human U251 cells assessed as cell growth at 10^-5 M incubated for 48 hrs by sulforhodamine B assay relative to control; conditions: U-251, 48 h, read-out: Activity
OVCAR-5 [11] = experiment: Growth inhibition of human OVCAR5 cells assessed as cell growth at 10^-7 M incubated for 48 hrs by sulforhodamine B assay relative to control; conditions: OVCAR-5, 48 h, read-out: Activity
HCT-116 [12] = experiment: Growth inhibition of human HCT116 cells assessed as cell growth at 10^-4 M incubated for 48 hrs by sulforhodamine B assay relative to control; conditions: HCT-116, 48 h, read-out: Activity
HT-29 [13] = experiment: Cytotoxicity against human HT-29 cells after 48 hrs by SRB assay; conditions: HT-29, 48 h
OVCAR-3 [14] = experiment: Cytotoxicity against human OVCAR3 cells after 48 hrs by SRB assay; conditions: OVCAR-3, 48 h
SK-OV-3 = experiment: Growth inhibition of human SKOV3 cells assessed as cell growth at 10^-7 M incubated for 48 hrs by sulforhodamine B assay relative to control; conditions: SK-OV-3, 48 h, read-out: Activity
COLO 205 [15] = experiment: Growth inhibition of human COLO205 cells assessed as cell growth at 10^-7 M incubated for 48 hrs by sulforhodamine B assay relative to control; conditions: COLO 205, 48 h, read-out: Activity
OVCAR-5 [16] = experiment: Cytotoxicity against human OVCAR5 cells after 48 hrs by SRB assay; conditions: OVCAR-5, 48 h
ACHN [17] = experiment: Growth inhibition of human ACHN cells assessed as cell growth at 10^-5 M incubated for 48 hrs by sulforhodamine B assay relative to control; conditions: read-out: Activity
HCT-15 = experiment: Growth inhibition of human HCT15 cells assessed as cell growth at 10^-5 M incubated for 48 hrs by sulforhodamine B assay relative to control; conditions: HCT-15, 48 h, read-out: Activity
[18] = read-out: LC50 (the source's name)

Compound: C#C[C@@]1(O)[C@@H](CO)O[C@@H](n2cc(F)c3c(N)ncnc32)[C@@H]1O
- growth at 100 µM (MCF7): -21%
- TGI (786-0; read-out: TGI): 2840 nM
- GI50 (786-0; read-out: pGI50 (converted)): 708 nM
- TGI (786-0; read-out: pTGI (converted)): 2820 nM
- growth at 0.01 µM (OVCAR-3 [1]): 106%
- CC50 (HCT-116 [2]; [18]): > 100000 nM
- GI50 (HCT-116 [2]; read-out: pGI50 (converted)): 151 nM
- GI50 (ACHN [3]): 240 nM
- CC50 (ACHN [3]; [18]): > 100000 nM
- TGI (ACHN [3]; read-out: TGI): > 100000 nM
- TGI (ACHN [3]; read-out: pTGI (converted)): > 100000 nM
- growth at 0.1 µM (SK-MEL-5): 78%
- growth at 1 µM (A549): 19%
- growth at 0.1 µM (HT-29 [4]): 68%
- growth at 0.01 µM (M14): 101%
- growth at 0.01 µM (SNB-75): 92%
- growth at 1 µM (HCC 2998): 37%
- growth at 10 µM (OVCAR-4): -3%
- growth at 0.01 µM (RXF 393): 94%
- growth at 0.01 µM (MDA-MB-435): 98%
- growth at 0.1 µM (RPMI-8226): 76%
- growth at 10 µM (SF-268): 7%
- growth at 10 µM (COLO 205 [5]): -52%
- growth at 1 µM (OVCAR-3 [6]): 52%
- growth at 0.01 µM (K562): 100%
- growth at 10 µM (HCT-116 [7]): -9%
- growth at 0.01 µM (U-251 [8]): 97%
- growth at 0.01 µM (HCT-116 [9]): 98%
- growth at 0.1 µM (SR): 65%
- growth at 10 µM (U-251 [10]): 1%
- growth at 0.1 µM (OVCAR-5 [11]): 108%
- growth at 100 µM (HCT-116 [12]): 1%
- TGI (HT-29 [13]; read-out: TGI): > 100000 nM
- GI50 (HT-29 [13]; read-out: pGI50 (converted)): 209 nM
- CC50 (HT-29 [13]; read-out: pLC50 (the source's name) (converted)): > 100000 nM
- TGI (HT-29 [13]; read-out: pTGI (converted)): > 100000 nM
- CC50 (OVCAR-3 [14]; [18]): > 100000 nM
- TGI (OVCAR-3 [14]; read-out: TGI): > 100000 nM
- GI50 (OVCAR-3 [14]; read-out: pGI50 (converted)): 1120 nM
- TGI (OVCAR-3 [14]; read-out: pTGI (converted)): > 100000 nM
- growth at 0.1 µM (SK-OV-3): 81%
- growth at 0.1 µM (COLO 205 [15]): 81%
- CC50 (OVCAR-5 [16]; [18]): > 100000 nM
- TGI (OVCAR-5 [16]; read-out: TGI): > 100000 nM
- GI50 (OVCAR-5 [16]; read-out: pGI50 (converted)): 1780 nM
- TGI (OVCAR-5 [16]; read-out: pTGI (converted)): > 100000 nM
- growth at 10 µM (ACHN [17]): 2%
- growth at 10 µM (HCT-15): -18%
